Test results: US9096832B2, “Differentiation of human embryonic stem cells” (LifeScan, Inc., priority 2007, dated 2015)

Test system: H9 embryonic stem cells
Test: Microarray analysis of definitive endoderm stage cells on […] or MEFs +/- Wnt-3a (Table VI)
Type: cell-based, human
Details: log format
[1] = DE treatment in low serum on MATRIGEL
[2] = DE treatment in low serum on MEFS

Procedure: Controls for each group included cells plated on [sequence]—coated dishes and cultured in MEF-conditioned medium or cells plated on MEFs and cultured in ES medium. All groups contained three biological replicates and each biological replicate was repeated on two separate gene chips.
Sample preparation, hybridization, and image analysis were performed according to the Affymetrix Human Genome U133 Plus 2.0 Array. Following normalization and a log transformation, data analysis was performed using OmniViz® software (MA) and [sequence] […] Significant differences in gene expression between the samples were evaluated using analysis of variance and an F-test with adjusted P-value (Benjamini and Hochberg correction) of less-than or equal to 0.05. Only genes with a present call in at least one group were included in the analysis.

Substance: Activin A: activin A (a member of the TGFβ superfamily), R&D Systems; 'w/o wnt' in Table VII = 100 ng/ml Activin A without Wnt3a
- mean normalized intensity: DKFZP566K1924 protein [1]: 2.882
- mean normalized intensity: ESTs, Moderately similar to ALU2_HUMAN ALU SUBFAMILY SB SEQUENCE CONTAMINATION WARNING ENTRY (H. sapiens) [1]: 4.241
- mean normalized intensity: H. sapiens mRNA for B-HLH DNA binding protein. [1]: 5.43
- mean normalized intensity: Homo sapiens BCL2-interacting killer (apoptosis-inducing) (BIK), mRNA. [1]: 4.3
- mean normalized intensity: Homo sapiens Charot-Leyden crystal protein (CLC), mRNA. [1]: 3.301
- mean normalized intensity: Homo sapiens HES-related repressor protein 1 HERP1 mRNA, complete cds. [1]: 2.806
- mean normalized intensity: Homo sapiens HSPC156 protein (HSPC156), mRNA. [1]: 0.7862
- mean normalized intensity: Homo sapiens KIAA0469 gene product (KIAA0469), mRNA. [1]: 4.031
- mean normalized intensity: Homo sapiens PNAS-123 mRNA, complete cds [1]: 1.597
- mean normalized intensity: Homo sapiens Wilms tumor 1 (WT1), transcript variant D, mRNA. [1]: 2.405
- mean normalized intensity: Homo sapiens cDNA FLJ11398 fis, clone HEMBA1000637. [1]: 2.5268
- mean normalized intensity: Homo sapiens cDNA: FLJ22547 fis, clone HSI00356 [1]: 4.294
- mean normalized intensity: Homo sapiens cadherin 6, type 2, K-cadherin (fetal kidney) (CDH6), mRNA. [1]: 0.8248
- mean normalized intensity: Homo sapiens chorionic somatomammotropin hormone 2 (CSH2), transcript variant 1, mRNA. [1]: 1.124
- mean normalized intensity: Homo sapiens chorionic somatomammotropin hormone 2 (CSH2), transcript variant 4, mRNA. [1]: 0.8122
- mean normalized intensity: Homo sapiens galanin receptor 1 (GALR1), mRNA. [1]: 2.507
- mean normalized intensity: Homo sapiens growth hormone 2 (GH2), transcript variant 2, mRNA. [1]: 0.9226
- mean normalized intensity: Homo sapiens hypothetical protein FLJ20075 (FLJ20075), mRNA. [1]: −0.3592
- mean normalized intensity: Homo sapiens mRNA for SCCA2b, complete cds. [1]: 3.329
- mean normalized intensity: Homo sapiens mRNA; cDNA DKFZp586P1124 (from clone DKFZp586P1124) [1]: 0.4856
- mean normalized intensity: Homo sapiens methyl-CpG binding protein MBD2 (MBD2) mRNA, complete cds. [1]: 0.4906
- mean normalized intensity: Homo sapiens tachykinin, precursor 1 (TAC1), transcript variant beta, mRNA. [1]: 2.773
- mean normalized intensity: Homo sapiens testis expressed sequence 14 (TEX14), mRNA. [1]: 3.512
- mean normalized intensity: Homo sapiens, Similar to LIM homeobox protein 8, clone IMAGE: 4839343, mRNA. [1]: −0.06288
- mean normalized intensity: Homo sapiens, Similar to cadherin 6, type 2, K-cadherin (fetal kidney), clone MGC: 1470, mRNA, complete cds. [1]: 2.547
- mean normalized intensity: Homo sapiens, Similar to hypothetical protein FLJ10058, clone MGC: 34305 IMAGE: 5167647, mRNA, complete cds. [1]: 1.698
- mean normalized intensity: Homo sapiens, Similar to hypothetical protein FLJ32001, clone MGC: 39559 IMAGE: 4828136, mRNA, complete cds. [1]: 0.5207
- mean normalized intensity: Homo sapiens, clone IMAGE: 4067166, mRNA [1]: 0.1959
- mean normalized intensity: Homo sapiens, clone IMAGE: 4828836, mRNA. [1]: 0.9729
- mean normalized intensity: Homo sapiens, serine (or cysteine) proteinase inhibitor, clade B (ovalbumin), member 3, clone MGC: 12244, mRNA, complete cds. [1]: 1.969
- mean normalized intensity: Human mRNA upregulated during camptothecin-induced apoptosis of U937 cells. [1]: 0.4945
- mean normalized intensity: Human platelet-derived growth factor alpha-receptor (PDGFRA) mRNA, exons 13-16 [1]: 2.445
- mean normalized intensity: KIAA1151 protein [1]: 0.6425
- mean normalized intensity: caldesmon 1 [1]: 7.092
- mean normalized intensity: nuclear receptor subfamily 1, group I, member 3 [1]: 1.779
- mean normalized intensity: ESTs (DE treatment in low serum on MATRIGEL, gene line r2006): 1.5857
- mean normalized intensity: ESTs (DE treatment in low serum on MATRIGEL, gene line r2025): 1.531
- mean normalized intensity: ESTs (DE treatment in low serum on MATRIGEL, gene line r2032): 0.1336
- mean normalized intensity: paternally expressed 3 (DE treatment in low serum on MATRIGEL, gene line r2033): 2.876
- mean normalized intensity: ESTs (DE treatment in low serum on MATRIGEL, gene line r2038): 3.262
- mean normalized intensity: paternally expressed 3 (DE treatment in low serum on MATRIGEL, gene line r2093): 2.874
- mean normalized intensity: ESTs (DE treatment in low serum on MATRIGEL, gene line r2134): −1.3795
- mean normalized intensity: ESTs (DE treatment in low serum on MATRIGEL, gene line r2148): 4.454
- mean normalized intensity: DKFZP566K1924 protein [2]: 1.391
- mean normalized intensity: ESTs, Moderately similar to ALU2_HUMAN ALU SUBFAMILY SB SEQUENCE CONTAMINATION WARNING ENTRY (H. sapiens) [2]: 3.874
- mean normalized intensity: H. sapiens mRNA for B-HLH DNA binding protein. [2]: 3.451
- mean normalized intensity: Homo sapiens BCL2-interacting killer (apoptosis-inducing) (BIK), mRNA. [2]: 3.562
- mean normalized intensity: Homo sapiens Charot-Leyden crystal protein (CLC), mRNA. [2]: 2.1096
- mean normalized intensity: Homo sapiens HES-related repressor protein 1 HERP1 mRNA, complete cds. [2]: 2.406
- mean normalized intensity: Homo sapiens HSPC156 protein (HSPC156), mRNA. [2]: 1.296
- mean normalized intensity: Homo sapiens KIAA0469 gene product (KIAA0469), mRNA. [2]: 2.565
- mean normalized intensity: Homo sapiens PNAS-123 mRNA, complete cds [2]: 1.847
- mean normalized intensity: Homo sapiens Wilms tumor 1 (WT1), transcript variant D, mRNA. [2]: −2.435
- mean normalized intensity: Homo sapiens cDNA FLJ11398 fis, clone HEMBA1000637. [2]: 1.849
- mean normalized intensity: Homo sapiens cDNA: FLJ22547 fis, clone HSI00356 [2]: 2.095
- mean normalized intensity: Homo sapiens cadherin 6, type 2, K-cadherin (fetal kidney) (CDH6), mRNA. [2]: −0.8763
- mean normalized intensity: Homo sapiens chorionic somatomammotropin hormone 2 (CSH2), transcript variant 1, mRNA. [2]: 2.616
- mean normalized intensity: Homo sapiens chorionic somatomammotropin hormone 2 (CSH2), transcript variant 4, mRNA. [2]: 2.218
- mean normalized intensity: Homo sapiens galanin receptor 1 (GALR1), mRNA. [2]: −0.338
- mean normalized intensity: Homo sapiens growth hormone 2 (GH2), transcript variant 2, mRNA. [2]: 1.4679
- mean normalized intensity: Homo sapiens hypothetical protein FLJ20075 (FLJ20075), mRNA. [2]: −0.06528
- mean normalized intensity: Homo sapiens mRNA for SCCA2b, complete cds. [2]: 0.568
- mean normalized intensity: Homo sapiens mRNA; cDNA DKFZp586P1124 (from clone DKFZp586P1124) [2]: −3.094
- mean normalized intensity: Homo sapiens methyl-CpG binding protein MBD2 (MBD2) mRNA, complete cds. [2]: −1.702
- mean normalized intensity: Homo sapiens tachykinin, precursor 1 (TAC1), transcript variant beta, mRNA. [2]: 1.483
- mean normalized intensity: Homo sapiens testis expressed sequence 14 (TEX14), mRNA. [2]: −1.3824
- mean normalized intensity: Homo sapiens, Similar to LIM homeobox protein 8, clone IMAGE: 4839343, mRNA. [2]: −1.11
- mean normalized intensity: Homo sapiens, Similar to cadherin 6, type 2, K-cadherin (fetal kidney), clone MGC: 1470, mRNA, complete cds. [2]: 2.134
- mean normalized intensity: Homo sapiens, Similar to hypothetical protein FLJ10058, clone MGC: 34305 IMAGE: 5167647, mRNA, complete cds. [2]: 0.2156
- mean normalized intensity: Homo sapiens, Similar to hypothetical protein FLJ32001, clone MGC: 39559 IMAGE: 4828136, mRNA, complete cds. [2]: 1.269
- mean normalized intensity: Homo sapiens, clone IMAGE: 4067166, mRNA [2]: 0.277
- mean normalized intensity: Homo sapiens, clone IMAGE: 4828836, mRNA. [2]: −1.484
- mean normalized intensity: Homo sapiens, serine (or cysteine) proteinase inhibitor, clade B (ovalbumin), member 3, clone MGC: 12244, mRNA, complete cds. [2]: −1.566
- mean normalized intensity: Human mRNA upregulated during camptothecin-induced apoptosis of U937 cells. [2]: −0.1892
- mean normalized intensity: Human platelet-derived growth factor alpha-receptor (PDGFRA) mRNA, exons 13-16 [2]: 2.905
- mean normalized intensity: KIAA1151 protein [2]: 1.009
- mean normalized intensity: caldesmon 1 [2]: 5.634
- mean normalized intensity: nuclear receptor subfamily 1, group I, member 3 [2]: −0.1968
- mean normalized intensity: ESTs (DE treatment in low serum on MEFS, gene line r2006): −1.3
- mean normalized intensity: ESTs (DE treatment in low serum on MEFS, gene line r2025): 1.373
- mean normalized intensity: ESTs (DE treatment in low serum on MEFS, gene line r2032): −1.566
- mean normalized intensity: paternally expressed 3 (DE treatment in low serum on MEFS, gene line r2033): −0.0118
- mean normalized intensity: ESTs (DE treatment in low serum on MEFS, gene line r2038): 1.5682
- mean normalized intensity: paternally expressed 3 (DE treatment in low serum on MEFS, gene line r2093): −3.492
